Assay results reported in patent US6693072B2, “Elastase inhibitors” (Aventis Pharmaceuticals Inc., priority 1994, dated 2004).

How the values were obtained:
[1] = molecular target: T1, human neutrophil elastase (Homo sapiens, UniProt P08246); experiment: Human neutrophil elastase in vitro inhibition assay, N-MeOSuc-Ala-Ala-Pro-Val-p-nitroanilide substrate; type: biochemical; conditions: for human neutrophil elastase, using N-MeOSucAlaAlaProVal-pNA as substrate; enzyme purified from human sputum
T1 construct: Enzyme is purified from human sputum, although recently it has become commercially available; from tissue; host or cells: human sputum
T1 sequence (P08246 30-247 limits assumed): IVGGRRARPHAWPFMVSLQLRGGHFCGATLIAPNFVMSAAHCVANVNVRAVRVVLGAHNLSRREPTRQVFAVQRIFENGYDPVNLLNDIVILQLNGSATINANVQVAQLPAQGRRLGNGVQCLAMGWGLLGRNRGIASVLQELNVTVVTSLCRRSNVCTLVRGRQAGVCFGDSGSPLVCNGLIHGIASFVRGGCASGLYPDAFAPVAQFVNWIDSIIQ
Description: Human neutrophil elastase is assayed in vitro using N-MeOSuc-[…]-nitroanilide, available commercially, as substrate. The assay buffer, pH and assay techniques are similar to those described by Mehdi, et al., Biochemical and Biophysical Research Communications, 166, 595 (1990). Enzyme is purified from human sputum, although recently it has become commercially available. Kinetic characterization of immediate inhibitors is by means of the Dixon plot, whereas the characterization of slow- and/or tight-binding inhibitors used data analysis techniques reviewed by Williams and Morrison. The synthesis and analytical use of a highly sensitive and convenient substrate of elastase is described in J. Bieth, B. Spiess and C. G. Wermuth, Biochemical Medicine, 11 (1974)350-375.

[2] = molecular target: human neutrophil elastase (human) (UniProt P08246); experiment: in vitro enzyme inhibition kinetics of human neutrophil elastase, substrate N-MeOSuc-Ala-Ala-Pro-Val-p-nitroanilide

Row | Ki [1] [nM] | Compound | Ki [2] [nM]
1 | 150 | CC(C)C(NC(=O)C1CCCCN1C(=O)[C@@H](NC(=O)c1ccc(C(=O)N2CCOCC2)cc1)C(C)C)C(=O)C(F)(F)C(F)(F)F (mixture of isomers) [MDL 105,759, N-[4-(4-morpholinylcarbonyl)benzoyl]-L-valyl-N′-[3,3,4,4,4-pentafluoro-1-(1-methylethyl)-2-oxobutyl]-D,L-2-pipecolinamide] | –
2 | 34 | CC(C)C(NC(=O)[C@H]1CCN1C(=O)[C@@H](NC(=O)c1ccc(C(=O)N2CCOCC2)cc1)C(C)C)C(=O)C(F)(F)C(F)(F)F (stereo partly drawn) [MDL 104,238, N-[4-(4-morpholinylcarbonyl)benzoyl]-L-valyl-N′-[3,3,4,4,4-pentafluoro-1-(1-methylethyl)-2-oxobutyl]-L-2-azetamide] | –
3 | 20 | CC(C)C(NC(=O)[C@H]1C[C@@H](OCc2ccccc2)CN1C(=O)[C@@H](NC(=O)c1ccc(C(=O)N2CCOCC2)cc1)C(C)C)C(=O)C(F)(F)C(F)(F)F (stereo partly drawn) [MDL 104,865, N-[4-(4-morpholinylcarbonyl)benzoyl]-L-valyl-N′-[3,3,4,4,4-pentafluoro-1-(1-methylethyl)-2-oxobutyl]-trans-4-benzyloxyprolinamide] | –
4 | – | N-[4-(4-morpholinylcarbonyl)benzoyl]-L-valyl-N'-[3,3,4,4,4-pentafluoro-1-(1-methylethyl)-2-oxobutyl]-trans-4-acetoxyprolinamide (peptide) | 40
